Earlier results as cited in publication PMC8160438, “A Novel Heptapeptide, GPPGPAG Transfers to the Brain, and Ameliorates Memory Dysfunction and Dendritic Atrophy in Alzheimer’s Disease Model Mice” (Frontiers in Pharmacology, 2021).

Conditions: in vivo, cited from earlier work
Description: In Figure 6H, the mean value of GPPGPAG in the cerebral cortex is 2.748 μg/g of tissue at 180 min after p.o. administration of 500 mg/mouse. When 10 mg/kg GPPGPAG is applied per orally, the transferred amount of GPPGPAG in the brain is calculated as 0.598 pmol. […] Identification of the BBB transporting system for GPPGPAG should be done in future.

Substance	transport into brain	crossing of the blood-brain barrier (po)
Gly-Pro	transported into brain	–
RPRTRLHTHRNR-NH2 [12-amino acid peptide that crosses the blood-brain barrier]	–	crosses the blood-brain barrier (BBB) without digestion
Tyr-Pro	transported into brain	–
